Patent US20230002361A1, “2H-INDAZOLE DERIVATIVES AND THEIR USE IN THE TREATMENT OF DISEASE” (BIOGEN MA INC., priority 2019, published 2023)
Like-named read-outs stand apart in the source and are kept apart here.

Assays:
[1] = molecular target: T1, human MDR1 transfected MDCK cells (Homo sapiens, UniProt P08183); test: MDR1-MDCK assay (efflux ratio); format: in vitro ADME; conditions: 1 μM compound, 120 minutes incubation
T1 construct: host or cells: MDCK cells
Method in brief: (§1)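 Human MDR1-transfected MDCK monolayers, cultured 7 days on transwell inserts with TEER checked, were dosed with compound at 1 μM in HBSS-HEPES. Transport was measured in both A-B and B-A directions. Efflux ratio came from the directional permeabilities, with mass balance also calculated.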

IRAK4 = molecular target: T2, IRAK4 (Homo sapiens, UniProt Q9NWZ3); test: IRAK4 MSD Biochemical Assay (1 mM ATP, 2 h); conditions: room temperature
T2 construct: with 0.1 nM IRAK4, 1.6 μM of biotinylated peptide substrate and 10 μM ATP
T2 sequence (Q9NWZ3 1-460): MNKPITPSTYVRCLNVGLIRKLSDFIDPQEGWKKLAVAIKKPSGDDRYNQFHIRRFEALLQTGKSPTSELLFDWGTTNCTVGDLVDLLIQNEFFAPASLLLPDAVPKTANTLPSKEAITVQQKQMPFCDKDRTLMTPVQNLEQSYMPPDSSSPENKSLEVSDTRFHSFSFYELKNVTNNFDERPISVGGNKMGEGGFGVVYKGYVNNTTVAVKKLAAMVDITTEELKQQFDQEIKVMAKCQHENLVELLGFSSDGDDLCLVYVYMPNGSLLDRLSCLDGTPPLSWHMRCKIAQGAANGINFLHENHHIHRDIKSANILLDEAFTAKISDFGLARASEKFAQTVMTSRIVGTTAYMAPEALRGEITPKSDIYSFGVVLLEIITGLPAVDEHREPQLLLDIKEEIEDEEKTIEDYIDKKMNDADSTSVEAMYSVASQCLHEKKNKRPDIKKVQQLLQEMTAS
Method in brief: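 Run with 1 mM ATP and […] for 2 h, then quenched with EDTA, pH 8. The phosphorylated biotinylated peptide was captured on streptavidin plates and detected with anti-phospho-threonine antibody plus Sulfo-Tag secondary by MSD electrochemiluminescence.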

MDR1 (P-gp) = molecular target: T3, MDR1 (P-gp) (Homo sapiens, UniProt P08183); test: MDR1-MDCK assay (efflux ratio); format: in vitro ADME; conditions: human, MDCK-MDR1, 1 μM compound, 120 minutes incubation; read-out: MDR1-MDCK Efflux Ratio; (B-A/A-B)
T3 construct: host or cells: MDCK cells
T3 sequence (P08183 whole entry): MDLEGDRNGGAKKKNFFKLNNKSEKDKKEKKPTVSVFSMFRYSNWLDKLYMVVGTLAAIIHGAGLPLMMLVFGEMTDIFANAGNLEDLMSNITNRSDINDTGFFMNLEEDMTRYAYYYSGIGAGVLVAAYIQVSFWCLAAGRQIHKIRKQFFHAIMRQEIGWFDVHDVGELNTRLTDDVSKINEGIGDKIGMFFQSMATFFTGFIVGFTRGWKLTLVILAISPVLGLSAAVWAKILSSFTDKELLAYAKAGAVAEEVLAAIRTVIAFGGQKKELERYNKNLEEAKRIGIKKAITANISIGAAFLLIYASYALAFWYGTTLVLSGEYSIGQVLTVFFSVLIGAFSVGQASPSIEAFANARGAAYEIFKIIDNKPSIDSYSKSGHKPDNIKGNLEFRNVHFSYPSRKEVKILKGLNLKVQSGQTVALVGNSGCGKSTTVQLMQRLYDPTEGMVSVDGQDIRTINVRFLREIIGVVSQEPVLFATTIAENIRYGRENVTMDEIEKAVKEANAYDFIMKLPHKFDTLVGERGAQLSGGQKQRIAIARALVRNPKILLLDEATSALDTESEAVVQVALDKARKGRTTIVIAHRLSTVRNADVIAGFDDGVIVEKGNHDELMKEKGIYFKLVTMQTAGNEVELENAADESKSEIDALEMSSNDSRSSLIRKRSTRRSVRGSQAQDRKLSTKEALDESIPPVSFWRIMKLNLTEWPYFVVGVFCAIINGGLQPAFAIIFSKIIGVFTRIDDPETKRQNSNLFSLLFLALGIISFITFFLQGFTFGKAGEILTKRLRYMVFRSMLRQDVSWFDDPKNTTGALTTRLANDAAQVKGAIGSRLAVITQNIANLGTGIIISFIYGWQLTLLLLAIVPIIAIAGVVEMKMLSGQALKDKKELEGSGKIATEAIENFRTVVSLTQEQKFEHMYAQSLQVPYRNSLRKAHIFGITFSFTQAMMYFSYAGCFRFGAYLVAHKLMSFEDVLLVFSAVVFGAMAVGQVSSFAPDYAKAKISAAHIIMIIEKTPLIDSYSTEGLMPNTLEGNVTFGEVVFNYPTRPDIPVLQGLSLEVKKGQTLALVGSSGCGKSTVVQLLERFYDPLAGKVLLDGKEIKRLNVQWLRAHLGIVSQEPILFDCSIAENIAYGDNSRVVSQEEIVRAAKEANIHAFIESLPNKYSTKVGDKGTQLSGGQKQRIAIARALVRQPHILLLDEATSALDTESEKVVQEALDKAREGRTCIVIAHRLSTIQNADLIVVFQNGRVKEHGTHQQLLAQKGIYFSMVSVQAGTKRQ
Method in brief: as §1

[2] = read-out: IRAK4 MSD Biochemical Assay (1 mM ATP, 2 h) IC50

T1 sequence (P08183 whole entry): as above

| Compound | MDR1-MDCK Efflux Ratio; (B-A/A-B) [1] | IC50 (IRAK4; [2]) | efflux ratio at 120 min, 1 μM (MDR1 (P-gp)) | IC50 (IRAK4; IRAK4 MSD Biochemical Assay (1 mM ATP, 2 h) IC50 (nM)) |
| --- | --- | --- | --- | --- |
| 6-Ethoxy-N-(2-methoxypyridin-3-yl)-2-(1-methyl-2-oxabicyclo[2.1.1]hexan-4-yl)-2H-indazole-5-carboxamide tfifluoroacetate [Example 85] | 0.8 | 0.9 nM |  |  |
| COc1cnc2c(NC(=O)c3cc4cn([C@@]56CC[C@@](C)(C5)OC6)nc4cc3OC(C)C)cnn2c1 (single isomer, unassigned) [Example 135] | 2.3 | 0.6 nM |  |  |
| Cc1ccn2ncc(NC(=O)c3cc4cn(C5CCCOC5)nc4nc3OC3CCC3)c2n1 (single isomer, unassigned) [Example 134] | 2.1 | 1 nM |  |  |
| COc1cnc2c(NC(=O)c3cc4cn([C@]56CC[C@](C)(C5)OC6)nc4cc3OC(C)C)cnn2c1 (single isomer, unassigned) [Example 136] | 2.3 | 1.4 nM |  |  |
| CC(C)Oc1nc2nn(C3CCOCC3)cc2cc1C(=O)Nc1cnn2cccnc12 [Example 82, 6-Isopropoxy-N-(pyrazolo[1,5-a]pyrimidin-3-yl)-2-(tetrahydro-2H-pyran-4-yl)-2H-pyrazolo[3,4-b]pyridine-5-carboxamide] |  | 1.2 nM | 2.6 |  |
| COc1cc2nn(C[C@@H]3CCOC3)cc2cc1C(=O)Nc1cccc(C(F)F)n1 (single isomer, unassigned) [Example 19] |  | 5.4 nM | 1 |  |
| Cl.O=C(Nc1cccc(C(F)F)n1)c1cc2cn(C3CCOCC3)nc2cc1OCC1CC(F)(F)C1 [Example 49, 6-((3,3-Difluorocyclobutyl)methoxy)-N-(6-(difluoromethyl)pyridin-2-yl)-2-(tetrahydro-2H-pyran-4-yl)-2H-indazole-5-carboxamide Hydrochloride] |  | 2 nM | 1.4 |  |
| COc1cccc(NC(=O)c2cc3cn(C4CCOCC4)nc3cc2OC)n1.O=C(O)C(F)(F)F [Example 5, 6-Methoxy-N-(6-methoxypyridin-2-yl)-2-(tetrahydro-2H-pyran-4-yl)-2H-indazole-5-carboxamide trifluoroacetate] |  | 21 nM | 0.6 |  |
| CC(C)Oc1cc2nn(C[C@@H]3CCOC3)cc2cc1C(=O)Nc1cccc(C(F)F)n1 (single isomer, unassigned) [Example 21] |  | 0.5 nM | 0.7 |  |
| COc1cccc(NC(=O)c2cc3cn(C4CCOC4)nc3cc2OC)n1.O=C(O)C(F)(F)F (stereo not shown) [Example 4, 6-Methoxy-N-(6-methoxypyridin-2-yl)-2-(tetrahydrofuran-3-yl)-2H-indazole-5-carboxamide trifluoroacetate] |  | 3380 nM | 0.4 |  |
| CC(C)Oc1nc2nn(CC3CCOC3)cc2cc1C(=O)Nc1cnn2cccnc12 (stereo not shown) [Example 54, 6-Isopropoxy-N-(pyrazolo[1,5-a]pyrimidin-3-yl)-2-((tetrahydrofuran-3-yl)methyl)-2H-pyrazolo[3,4-b]pyridine-5-carboxamide] |  |  | 3.6 | 1.3 nM |
| COCCCn1cc2cc(C(=O)Nc3cccc(C(F)F)n3)c(OC(C)C)nc2n1.Cl [Example 62, N-(6-(difluoromethyl)pyridin-2-yl)-6-isopropoxy-2-(3-methoxsypropyl)-2H-pyrazolo[3,4-b]pyridine-5-carboxamide hydrochloride] |  | 0.6 nM | 1.7 |  |
| CC(C)Oc1cc2nn(CCC(C)(C)O)cc2cc1C(=O)Nc1cnn2cccnc12 [Example 34, 2-(3-Hydroxy-3-methylbutyl)-6-isopropoxy-N-(pyrazolo[1,5-a]pyrimidin-3-yl)-2H-indazole-5-carboxamide] |  | 1 nM | 14.2 |  |
| CC(C)Oc1nc2nn(CC3CCOC3)cc2cc1C(=O)Nc1ccccn1 (stereo not shown) [Example 77, 6-Isopropoxy-N-(pyridin-2-yl)-2-((tetrahydrofuran-3-yl)methyl)-2H-pyrazolo[3,4-b]pyridine-5-carboxamide] |  | 13.6 nM | 1.9 |  |
| Cn1ccc(NC(=O)c2cc3cn(C4CCCOC4)nc3nc2OC2CCC2)n1 (single isomer, unassigned) [Example 129] |  | 5.7 nM | 3.4 |  |
| COC(C)(C)CCn1cc2cc(C(=O)Nc3cccc(C(F)F)n3)c(OC(C)C)cc2n1.Cl [Example 29, N-(6-(difluoromethyl)pyridin-2-yl)-6-isopropoxy-2-(3-methoxy-3-methylbutyl)-2H-indazole-5-carboxamide hydrochloride] |  | 0.6 nM | 0.8 |  |
| CC(C)Oc1cc2nn(C)cc2cc1C(=O)Nc1cccc(C(F)F)n1 [Example 41, N-(6-(difluoromethyl)pyridin-2-yl)-6-isopropoxy-2-methyl-2H-indazole-5-carboxamide] |  | 3.2 nM | 0.3 |  |
| Cn1ccc(NC(=O)c2cc3cn(C45CCC(C)(CC4)OC5)nc3cc2OC2CCC2)n1 [Example 140, 6-cyclobutoxy-N-(1-methyl-1H-pyrazol-3-yl)-2-(1-methyl-2-oxabicyclo[2.2.2]octan-4-yl)-2H-indazole-5-carboxamide] |  | 0.9 nM | 0.9 |  |

Further compounds by falling IC50 (IRAK4; [2]), results first:

| MDR1-MDCK Efflux Ratio; (B-A/A-B) [1] | IC50 (IRAK4; [2]) | efflux ratio at 120 min, 1 μM (MDR1 (P-gp)) | Compound | IC50 (IRAK4; IRAK4 MSD Biochemical Assay (1 mM ATP, 2 h) IC50 (nM)) |
| --- | --- | --- | --- | --- |
|  | 0.5 nM | 1 | CC(C)Oc1cc2nn(C34CCC(C)(C3)OC4)cc2cc1C(=O)Nc1cnn2cccnc12 (stereo not shown) [Example 98, 6-Isopropoxy-2-(1-methyl-2-oxabicyclo[2.2.1]heptan-4-yl)-N-(pyrazolo[1,5-a]pyrimidin-3-yl)-2H-indazole-5-carboxamide] |  |
|  | 0.4 nM | 1.4 | CC(C)Oc1cc2nn(C34COC(C)(C3)C4)cc2cc1C(=O)Nc1cnn2cccnc12 [Example 93, 6-Isopropoxy-2-(1-methyl-2-oxabicyclo[2.1.1]hexan-4-yl)-N-(pyrazolo[1,5-a]pyrimidin-3-yl)-2H-indazole-5-carboxamide] |  |
|  | 0.4 nM | 0.9 | CC(C)Oc1cc2nn([C@H]3CCCOC3)cc2cc1C(=O)Nc1cccc(C(F)F)n1 (single isomer, unassigned) [Example 42] |  |
|  | 0.4 nM | 0.5 | CO[C@H]1C[C@H](n2cc3cc(C(=O)Nc4cccc(C(F)F)n4)c(OC(C)C)cc3n2)C1 [Example 74, N-(6-(difluoromethyl)pyridin-2-yl)-6-isopropoxy-2-((1R,3R)-3-methoxycyclobutyl)-2H-indazole-5-carboxamide] |  |
|  | 0.3 nM | 0.9 | CC(C)Oc1cc2nn(C34COC(C)(C3)C4)cc2cc1C(=O)Nc1cnn2cc(Cl)cnc12 [Example 95, N-(6-chloropyrazolo[1,5-a]pyrimidin-3-yl)-6-isopropoxy-2-(1-methyl-2-oxabicyclo[2.1.1]hexan-4-yl)-2H-indazole-5-carboxamide] |  |
| 1.7 | 0.2 nM |  | CC12CCC(n3cc4cc(C(=O)Nc5cnn6cccnc56)c(OC5CCC5)cc4n3)(CO1)C2 (single isomer, unassigned) [Example 138] |  |
|  | 0.2 nM | 0.6 | CC(C)Oc1cc2nn([C@@H]3CCCOC3)cc2cc1C(=O)Nc1cccc(C(F)F)n1 (single isomer, unassigned) [Example 43] |  |
| 2.0 | 0.1 nM |  | Cc1cnc2c(NC(=O)c3cc4cn(C5CCCOC5)nc4nc3OC3CCC3)cnn2c1 (single isomer, unassigned) [Example 132] |  |
